Reference: US20230027026A1, “FUSED PYRIMIDINE COMPOUNDS, COMPOSITIONS AND MEDICINAL APPLICATIONS THEREOF” (JUBILANT BIOSYS LIMITED, priority 2019, published 2023)

Columns and labels:
A431 cells = test: Cellular proliferation (Alamar Blue) assay, A431; format: cell-based; details: Homo sapiens, A-431; A431 cells, 72 hr, Alamar Blue; read-out: A431 IC50
Method in brief: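 Following a 16–18 h pre-incubation, cells received compound or DMSO for 72 h at 37 °C across a 10–0.0005 μM final range. Proliferation was then scored by Alamar Blue fluorescence (540 nm excitation, 590 nm emission) after 3 h.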

[1] = target: EGFR (A767_dupASV) expressing Ba/F3 stable cell line (Homo sapiens, UniProt P00533, DUP767-769, cells depend on it); test: Cellular proliferation (Alamar Blue) assay, EGFR A767_dupASV Ba/F3; format: cell-based; details: EGFR A767_dupASV Ba/F3, 72 hr, read-out: A767 IC50
Method in brief: (§1)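 Ba/F3 lines (15,000 cells/well, RPMI with 10% FBS) expressing mutant EGFR or HER2, plus BT-474 cells, treated 72 h at 37 °C with compound at 10-0.0005 μM final, 3-fold dilutions. Viability by Alamar Blue after 3 h, fluorescence 540 nm excitation/590 nm emission.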

[2] = tested on: H1975 cells (L858R_T790M mutant); test: H1975 proliferation assay; format: cell-based; details: Homo sapiens, NCI-H1975; read-out: Proliferation_Assay H1975 cells-EC50_nM L858R_T790M_mutant
EGFR (T790M/L858R) = target: T1, EGFR (T790M/L858R) (Homo sapiens, UniProt P00533, L858R/T790M); test: EGFR L858R/T790M enzyme inhibition assay (HTRF); format: biochemical; details: 5 μM ATP, 60 min, read-out: EGFR_L858R T790M_IC50_nM
T1 construct: GST; purchased Proqinase
Method in brief: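 HTRF kinase assay with 2.5 nM GST-EGFR T790M/L858R, 0.5 μM biotinylated gastrin peptide and 5 μM ATP in HEPES pH 7.4 with Mg/Mn, 60 min at room temperature; compounds from 10 μM top. Phosphotyrosine detected by Eu anti-pTyr/SA-APC; IC50 from % inhibition.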

[3] = target: EGFR(D770_N771insSVD) expressing Ba/F3 stable cell line (Homo sapiens, UniProt P00533, DUP768-770, cells depend on it); test: Cellular proliferation (Alamar Blue) assay, EGFR D770_N771insSVD Ba/F3; format: cell-based; details: EGFR D770_N771insSVD Ba/F3, 72 hr, read-out: D770 IC50
Method in brief: as §1

Chain of EGFR (A767_dupASV) expressing Ba/F3 stable cell line (P00533 with tags, fused parts or gaps DUP767-769): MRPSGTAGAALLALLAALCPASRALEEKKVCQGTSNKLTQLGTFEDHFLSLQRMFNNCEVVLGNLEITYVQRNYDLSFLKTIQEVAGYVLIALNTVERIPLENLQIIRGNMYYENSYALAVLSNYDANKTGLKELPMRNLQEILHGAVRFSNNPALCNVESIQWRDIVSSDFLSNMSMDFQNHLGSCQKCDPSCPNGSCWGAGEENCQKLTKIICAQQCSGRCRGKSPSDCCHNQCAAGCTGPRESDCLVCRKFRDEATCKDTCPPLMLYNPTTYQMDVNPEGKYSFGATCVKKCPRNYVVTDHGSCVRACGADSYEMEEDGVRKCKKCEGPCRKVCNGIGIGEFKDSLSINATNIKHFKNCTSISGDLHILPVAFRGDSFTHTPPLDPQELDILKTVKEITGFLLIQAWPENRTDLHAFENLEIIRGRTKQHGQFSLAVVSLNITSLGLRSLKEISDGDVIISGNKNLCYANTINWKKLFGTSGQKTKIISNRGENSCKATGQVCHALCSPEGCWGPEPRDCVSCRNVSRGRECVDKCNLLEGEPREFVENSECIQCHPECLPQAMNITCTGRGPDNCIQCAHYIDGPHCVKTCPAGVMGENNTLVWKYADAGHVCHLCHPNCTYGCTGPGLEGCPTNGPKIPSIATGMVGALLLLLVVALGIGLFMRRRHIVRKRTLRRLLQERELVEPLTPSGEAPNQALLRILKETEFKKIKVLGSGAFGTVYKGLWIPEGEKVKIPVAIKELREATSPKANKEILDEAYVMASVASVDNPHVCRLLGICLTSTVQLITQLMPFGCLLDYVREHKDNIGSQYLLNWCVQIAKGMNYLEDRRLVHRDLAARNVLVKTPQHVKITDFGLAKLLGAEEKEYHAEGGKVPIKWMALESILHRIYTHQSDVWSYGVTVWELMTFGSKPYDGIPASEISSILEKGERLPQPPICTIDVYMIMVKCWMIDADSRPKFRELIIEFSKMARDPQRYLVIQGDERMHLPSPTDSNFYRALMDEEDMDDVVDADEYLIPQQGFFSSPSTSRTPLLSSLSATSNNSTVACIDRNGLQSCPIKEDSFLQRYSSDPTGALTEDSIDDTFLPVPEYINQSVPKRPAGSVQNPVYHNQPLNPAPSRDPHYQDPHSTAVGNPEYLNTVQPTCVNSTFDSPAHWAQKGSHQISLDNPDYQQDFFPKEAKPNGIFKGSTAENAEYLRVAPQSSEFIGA
T1 sequence (P00533 25-1210 T790M/L858R): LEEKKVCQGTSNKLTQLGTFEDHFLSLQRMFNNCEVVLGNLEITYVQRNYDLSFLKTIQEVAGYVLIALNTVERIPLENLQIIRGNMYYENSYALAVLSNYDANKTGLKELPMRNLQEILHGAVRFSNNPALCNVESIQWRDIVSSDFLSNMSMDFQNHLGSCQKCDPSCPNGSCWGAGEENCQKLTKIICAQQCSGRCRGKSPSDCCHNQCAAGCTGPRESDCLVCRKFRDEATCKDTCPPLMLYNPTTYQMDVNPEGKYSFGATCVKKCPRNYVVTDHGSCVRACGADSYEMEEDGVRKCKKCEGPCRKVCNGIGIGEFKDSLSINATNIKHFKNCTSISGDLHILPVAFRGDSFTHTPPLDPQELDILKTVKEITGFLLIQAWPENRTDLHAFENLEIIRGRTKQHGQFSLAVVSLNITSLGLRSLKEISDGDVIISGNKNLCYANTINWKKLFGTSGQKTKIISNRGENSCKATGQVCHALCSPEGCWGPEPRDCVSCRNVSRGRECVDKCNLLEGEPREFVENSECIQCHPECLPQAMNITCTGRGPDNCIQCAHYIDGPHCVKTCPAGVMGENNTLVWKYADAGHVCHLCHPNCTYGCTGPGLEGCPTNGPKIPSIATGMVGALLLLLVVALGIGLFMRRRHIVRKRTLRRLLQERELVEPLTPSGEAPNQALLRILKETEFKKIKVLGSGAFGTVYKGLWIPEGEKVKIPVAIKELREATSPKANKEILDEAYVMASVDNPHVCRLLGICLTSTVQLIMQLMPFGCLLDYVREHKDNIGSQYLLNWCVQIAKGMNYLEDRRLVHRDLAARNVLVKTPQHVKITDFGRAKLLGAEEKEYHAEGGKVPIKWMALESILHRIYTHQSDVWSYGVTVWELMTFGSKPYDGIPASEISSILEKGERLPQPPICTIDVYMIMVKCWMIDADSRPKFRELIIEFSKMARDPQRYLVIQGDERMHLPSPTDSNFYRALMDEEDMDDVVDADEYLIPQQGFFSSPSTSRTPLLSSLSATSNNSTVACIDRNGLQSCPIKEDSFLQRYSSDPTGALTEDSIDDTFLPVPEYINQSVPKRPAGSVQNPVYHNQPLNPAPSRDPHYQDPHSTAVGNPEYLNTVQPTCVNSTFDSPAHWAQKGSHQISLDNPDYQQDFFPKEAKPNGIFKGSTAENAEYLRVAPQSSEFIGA
Chain of EGFR(D770_N771insSVD) expressing Ba/F3 stable cell line (P00533 with tags, fused parts or gaps DUP768-770): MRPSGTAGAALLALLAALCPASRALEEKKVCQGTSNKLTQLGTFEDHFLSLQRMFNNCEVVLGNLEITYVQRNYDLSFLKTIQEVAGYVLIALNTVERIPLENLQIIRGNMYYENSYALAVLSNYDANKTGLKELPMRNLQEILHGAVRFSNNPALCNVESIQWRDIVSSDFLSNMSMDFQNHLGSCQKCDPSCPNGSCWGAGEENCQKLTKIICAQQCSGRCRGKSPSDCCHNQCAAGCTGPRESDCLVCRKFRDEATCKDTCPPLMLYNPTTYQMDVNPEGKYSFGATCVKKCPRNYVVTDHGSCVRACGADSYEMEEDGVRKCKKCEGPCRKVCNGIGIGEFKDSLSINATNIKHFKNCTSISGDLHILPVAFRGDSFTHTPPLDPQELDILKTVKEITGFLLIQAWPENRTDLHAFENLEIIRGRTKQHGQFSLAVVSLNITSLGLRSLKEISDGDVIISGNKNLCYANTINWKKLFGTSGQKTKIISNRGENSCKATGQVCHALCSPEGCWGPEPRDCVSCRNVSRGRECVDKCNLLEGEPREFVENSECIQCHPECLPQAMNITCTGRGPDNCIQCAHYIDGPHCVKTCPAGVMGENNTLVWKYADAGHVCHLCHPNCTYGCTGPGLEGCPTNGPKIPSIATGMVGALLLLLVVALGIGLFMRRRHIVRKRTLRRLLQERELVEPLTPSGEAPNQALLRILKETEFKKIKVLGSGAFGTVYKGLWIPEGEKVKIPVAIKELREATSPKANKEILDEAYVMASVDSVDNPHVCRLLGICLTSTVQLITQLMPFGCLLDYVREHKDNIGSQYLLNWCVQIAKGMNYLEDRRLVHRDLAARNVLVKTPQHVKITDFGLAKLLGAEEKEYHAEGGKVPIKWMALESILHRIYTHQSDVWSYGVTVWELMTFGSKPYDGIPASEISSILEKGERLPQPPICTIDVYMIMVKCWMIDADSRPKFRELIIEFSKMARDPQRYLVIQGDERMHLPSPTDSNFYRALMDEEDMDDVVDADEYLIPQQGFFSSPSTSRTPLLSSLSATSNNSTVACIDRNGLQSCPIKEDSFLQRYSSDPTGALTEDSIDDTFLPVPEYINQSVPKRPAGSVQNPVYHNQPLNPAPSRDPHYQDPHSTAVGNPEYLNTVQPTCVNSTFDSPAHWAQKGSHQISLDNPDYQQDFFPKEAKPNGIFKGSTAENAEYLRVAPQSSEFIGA

SMILES	IC50 (A431 cells) [nM]	GI50 [1] [nM]	EC50 [2] [nM]	IC50 (EGFR (T790M/L858R)) [nM]	GI50 [3] [nM]
Cc1cc(Nc2ncc3c(n2)N(c2cccc(NC(=O)/C=C/CN(C)C)c2)C(=O)N(Cc2ccccc2)C3)sn1 [Compound 22, (E)-N-(3-(3-benzyl-7-((3-methylisothiazol-5-yl)amino)-2-oxo-3,4-dihydropyrimido[4,5-d]pyrimidin-1(2H)-yl)phenyl)-4-(dimethylamino)but-2-enamide]	46	121	10	7	278
Cc1nn(CC(F)(F)F)cc1Nc1ncc2c(n1)N(c1cccc(NC(=O)/C=C/CN(C)C)c1)C(=O)N(Cc1ccccc1)C2 [Compound 8, (E)-N-(3-(3-benzyl-7-((3-methyl-1-(2,2,2-trifluoroethyl)-1H-pyrazol-4-yl)amino)-2-oxo-3,4-dihydropyrimido[4,5-d]pyrimidin-1(2H)-yl)phenyl)-4-(dimethylamino)but-2-enamide]	580	103	9.2	9	108
C=CC(=O)NC1CCCC(N2C(=O)N(Cc3ccccc3)Cc3cnc(Nc4cnn(C)c4)nc32)C1 (centres unmarked) [Compound 24, N-(3-(3-benzyl-7-((1-methyl-1H-pyrazol-4-yl)amino)-2-oxo-3,4-dihydropyrimido[4,5-d]pyrimidin-1(2H)-yl)cyclohexyl)acrylamide]	8340	356	71	53	340
CN(C)C/C=C/C(=O)N(C)c1cccc(N2C(=O)N(Cc3ccccc3)Cc3cnc(Nc4cnn(C)c4)nc32)c1 [Compound 21, (E)-N-(3-(3-benzyl-7-((1-methyl-1H-pyrazol-4-yl)amino)-2-oxo-3,4-dihydropyrimido[4,5-d]pyrimidin-1(2H)-yl)phenyl)-4-(dimethylamino)-N-methylbut-2-enamide]	2080	2810	83.9	45	3350
C=CC(=O)Nc1cccc(N2C(=O)N(Cc3ccccc3)Cc3cnc(Nc4cnn(CCO)c4)nc32)c1 [Compound 13, N-(3-(3-benzyl-7-((1-(2-hydroxyethyl)-1H-pyrazol-4-yl)amino)-2-oxo-3,4-dihydropyrimido[4,5-d]pyrimidin-1(2H)-yl)phenyl)acrylamide]	59	45	1.5	1	42
Cc1nn(C)cc1Nc1ncc2c(n1)N(c1cccc(NC(=O)/C=C/CN(C)C)c1)C(=O)N(Cc1ccccc1)C2 [Compound 23, (E)-N-(3-(3-benzyl-7-((1,3-dimethyl-1H-pyrazol-4-yl)amino)-2-oxo-3,4-dihydropyrimido[4,5-d]pyrimidin-1(2H)-yl)phenyl)-4-(dimethylamino)but-2-enamide]	18	124	6.4	3	299
Cc1c(Nc2ncc3c(n2)N(c2cccc(NC(=O)/C=C/CN(C)C)c2)C(=O)N(Cc2ccccc2)C3)cnn1C [Compound 11, (E)-N-(3-(3-benzyl-7-((1,5-dimethyl-1H-pyrazol-4-yl)amino)-2-oxo-3,4-dihydropyrimido[4,5-d]pyrimidin-1(2H)-yl)phenyl)-4-(dimethylamino)but-2-enamide]	1710	1150	9.6	2	2430
CC(c1ccccc1)N1Cc2cnc(Nc3cnn(C)c3)nc2N(c2cccc(NC(=O)/C=C/CN(C)C)c2)C1=O (racemic) [Compound 10, (E)-4-(dimethylamino)-N-(3-(7-((1-methyl-1H-pyrazol-4-yl)amino)-2-oxo-3-(1-phenylethyl)-3,4-dihydropyrimido[4,5-d]pyrimidin-1(2H)-yl)phenyl)but-2-enamide]	638	105	4.5	4	108
COCCn1cc(Nc2ncc3c(n2)N(c2cccc(NC(=O)/C=C/CN(C)C)c2)C(=O)N(Cc2ccccc2)C3)cn1 [Compound 16, (E)-N-(3-(3-benzyl-7-((1-(2-methoxyethyl)-1H-pyrazol-4-yl)amino)-2-oxo-3,4-dihydropyrimido[4,5-d]pyrimidin-1(2H)-yl)phenyl)-4-(dimethylamino)but-2-enamide]	371	1170	15.7	1	2310

More lines, now with the values ahead:

IC50 (A431 cells) [nM]	GI50 [1] [nM]	EC50 [2] [nM]	IC50 (EGFR (T790M/L858R)) [nM]	GI50 [3] [nM]	SMILES
56	123	37.6	9	106	CN(C)C/C=C/C(=O)Nc1cccc(N2C(=O)N(Cc3ccccc3)Cc3cnc(Nc4ccc5c(c4)cc(C#N)n5C)nc32)c1 [Compound 44, (E)-N-(3-(3-benzyl-7-((2-cyano-1-methyl-1H-indol-5-yl)amino)-2-oxo-3,4-dihydropyrimido[4,5-d]pyrimidin-1(2H)-yl)phenyl)-4-(dimethylamino)but-2-enamide]
4400	9190	≥ 10000	303	≥ 10000	Cc1cnc(Nc2ncc3c(n2)N(C2CCCC(NC(=O)/C=C/CN(C)C)C2)C(=O)N(Cc2ccccc2)C3)s1 (centres unmarked) [Compound 27, (E)-N-(3-(3-benzyl-7-((5-methylthiazol-2-yl)amino)-2-oxo-3,4-dihydropyrimido[4,5-d]pyrimidin-1(2H)-yl)cyclohexyl)-4-(dimethylamino)but-2-enamide]
1370	2910	176	82	2880	Cc1cc(Nc2ncc3c(n2)N(C2CCCC(NC(=O)/C=C/CN(C)C)C2)C(=O)N(Cc2ccccc2)C3)sn1 (centres unmarked) [Compound 32, (E)-N-(3-(3-benzyl-7-((3-methylisothiazol-5-yl)amino)-2-oxo-3,4-dihydropyrimido[4,5-d]pyrimidin-1(2H)-yl)cyclohexyl)-4-(dimethylamino)but-2-enamide]
1130	352	46.7	11	350	CN(C)C/C=C/C(=O)Nc1cccc(N2C(=O)N(Cc3ccccc3)Cc3cnc(Nc4ccc5cnn(C)c5c4)nc32)c1 [Compound 45, (E)-N-(3-(3-benzyl-7-((1-methyl-1H-indazol-6-yl)amino)-2-oxo-3,4-dihydropyrimido[4,5-d]pyrimidin-1(2H)-yl)phenyl)-4-(dimethylamino)but-2-enamide]
4090	2600	1080	660	431	Cc1csc(Nc2ncc3c(n2)N(C2CCCC(NC(=O)/C=C/CN(C)C)C2)C(=O)N(Cc2ccccc2)C3)n1 (centres unmarked) [Compound 29, (E)-N-(3-(3-benzyl-7-((4-methylthiazol-2-yl)amino)-2-oxo-3,4-dihydropyrimido[4,5-d]pyrimidin-1(2H)-yl)cyclohexyl)-4-(dimethylamino)but-2-enamide]
≥ 10000	≥ 10000	637	112	9350	C=CC(=O)N1CC[C@H](N2C(=O)N(Cc3ccccc3)Cc3cnc(Nc4cn(C)nc4Cl)nc32)C1 (single isomer, unassigned) [Compound 39]
920	2810	413	164	2570	C=CC(=O)NC1CCCC(N2C(=O)N(Cc3ccccc3)Cc3cnc(Nc4ncc(C)s4)nc32)C1 (centres unmarked) [Compound 30, N-(3-(3-benzyl-7-((5-methylthiazol-2-yl)amino)-2-oxo-3,4-dihydropyrimido[4,5-d]pyrimidin-1(2H)-yl)cyclohexyl)acrylamide]
≥ 10000	≥ 10000	372	167	≥ 10000	C=CC(=O)N1CCC(N2C(=O)N(Cc3ccccc3)Cc3cnc(Nc4cn(C)nc4Cl)nc32)C1 (racemic) [Compound 37, 1-(1-acryloylpyrrolidin-3-yl)-3-benzyl-7-((3-chloro-1-methyl-1H-pyrazol-4-yl)amino)-3,4-dihydropyrimido[4,5-d]pyrimidin-2(1H)-one]
148	456	133	3.5	361	Cc1csc(Nc2ncc3c(n2)N(c2cccc(NC(=O)/C=C/CN(C)C)c2)C(=O)N(Cc2ccccc2)C3)n1 [Compound 48, (E)-N-(3-(3-benzyl-7-((4-methylthiazol-2-yl)amino)-2-oxo-3,4-dihydropyrimido[4,5-d]pyrimidin-1(2H)-yl)phenyl)-4-(dimethylamino)but-2-enamide]
632	103	6.3	3.8	108	CN(C)C/C=C/C(=O)Nc1cccc(N2C(=O)N(Cc3ccccc3)Cc3cnc(Nc4ccc5c(cnn5C)c4)nc32)c1 [Compound 43, (E)-N-(3-(3-benzyl-7-((1-methyl-1H-indazol-5-yl)amino)-2-oxo-3,4-dihydropyrimido[4,5-d]pyrimidin-1(2H)-yl)phenyl)-4-(dimethylamino)but-2-enamide]
